Measured values published in patent US9464064B2, “HCV helicase inhibitors and methods of use thereof” (University of Kansas, priority 2011, dated 2016).

Target: T1, HCV NS3 helicase NS3h_1b(con1) (Hepatitis C virus genotype 1b, UniProt Q9WMX2)
T1 construct: truncated C-terminally His-tagged NS3 proteins lacking the N-terminal protease, called NS3h; His-tag (C); made in house
Assay: MBHA screen of NCI mechanistic set library at 20 μM (percent inhibition, compound interference)
Type: biochemical
Conditions: compounds at 20 μM; for Inh. (%) (Inhibition): calculated from Equation 1
In short: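 Molecular beacon-based DNA unwinding assay; compounds screened at 20 μM in triplicate, with DMSO-only negative and 500 nM dT20 positive controls. Fluorescence (ex 643/em 670 nm) was read before and 30 min after adding ATP to 1 mM. Percent inhibition came from the change relative to DMSO controls; interference from pre-ATP fluorescence versus DMSO controls.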

[1] = MBHA with DNA substrate, assay interference calculated with Equation 2
[2] = assay interference calculated with Equation 2 (fluorescence vs DMSO-only controls before ATP)

T1 sequence (Q9WMX2 1192-1657): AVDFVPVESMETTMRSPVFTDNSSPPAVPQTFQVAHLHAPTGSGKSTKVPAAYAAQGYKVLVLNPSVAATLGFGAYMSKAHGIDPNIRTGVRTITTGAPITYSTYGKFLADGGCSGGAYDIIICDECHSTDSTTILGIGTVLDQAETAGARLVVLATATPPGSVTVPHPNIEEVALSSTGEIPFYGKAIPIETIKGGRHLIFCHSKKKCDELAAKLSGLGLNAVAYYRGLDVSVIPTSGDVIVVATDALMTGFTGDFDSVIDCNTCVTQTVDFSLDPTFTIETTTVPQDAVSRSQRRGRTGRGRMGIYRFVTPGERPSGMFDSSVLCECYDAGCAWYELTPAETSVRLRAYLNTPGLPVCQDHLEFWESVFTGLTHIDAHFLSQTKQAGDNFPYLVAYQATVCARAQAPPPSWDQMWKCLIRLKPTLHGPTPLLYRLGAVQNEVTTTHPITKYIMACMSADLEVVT

Int.* (Ratio) (Interference) [1] | Inh. (%) (Inhibition) (MBHA with DNA substrate) | Inh. (%) (Inhibition) (MBHA with a DNA substrate) | Int.* (Ratio) (Interference) [2] | Inh. (%) (Inhibition) (MBHA with DNA substrate, 20 µM) | Structure (SMILES)
0.91 | 26.6 |  |  |  | CC(C)c1ccc2nc3ccc(C(=O)NCCN(C)C)cn3c(=O)c2c1 [Compound 600305]
0.97 | −7.8 |  |  |  | CCN(CC)CCOc1ccccc1/C=C/c1noc2ccccc12.Cl [Compound 601101]
0.97 | 3.9 |  |  |  | Cc1nc2c(nc1C)C(=O)c1ccccc1C2=O [Compound 602617]
1.03 | −8.6 |  |  |  | CN(C)c1cccc(F)c1C(=O)NC(=O)Nc1ccc(Cl)cc1 [Compound 603108]
0.22 | 26.2 |  |  |  | C[n+]1c(-c2ccc(/C=C/C=N/NC(=O)c3ccc(C(=O)N/N=C/C=C/c4ccc(-c5cn6ccccc6[n+]5C)cc4)cc3)cc2)cn2ccccc21.Cc1ccc(S(=O)(=O)O)cc1 [Compound 603169]
 |  | 7.5 | 0.92 |  | Cc1ccc(S(=O)(=O)NC(=O)NC2=NC(C)(C)N(c3ccc(Cl)c(Cl)c3)C(N)=N2)cc1 [Compound 603624]
 |  | −5.7 | 1.20 |  | O=c1[nH]c2ccc(O)cc2o1 [Compound 603719]
1.08 | 1.0 |  |  |  | C[C@H](CSC(=O)c1ccccc1)C(=O)N1c2ccccc2C[C@H]1C(=O)O [Compound 604535]
0.33 | 14.1 |  |  |  | Cl.Nc1ccc2cc3ccc(N)cc3nc2c1 [Compound 605756]
0.83 | 21.5 |  |  |  | O=[N+]([O-])c1ccc(-c2cn(-c3ccc(Cl)cc3)cn2)cc1 [Compound 610744]
 |  | −4.8 | 1.06 |  | CC(=O)Oc1ccc(C(c2ccc(OC(C)=O)cc2)c2ccccn2)cc1 [Compound 614826]
0.91 | −17.7 |  |  |  | C=C(C#N)C(=O)OCC(CC)CC.C=C(C#N)C(=O)OCC(CC)CC.CS(C)=O.CS(C)=O.Nc1c(N=Nc2ccc(-c3ccc(N=Nc4cc(S(=O)(=O)[O-])c5ccccc5c4N)cc3)cc2)cc(S(=O)(=O)[O-])c2ccccc12.[Pt+2] [Compound 615593]
0.96 | −12.9 |  |  |  | Cl.Nc1nccc2c1ncn2C1C=C(CO)C(O)C1O (centres unmarked) [Compound 617989]
 |  | −6.4 | 0.95 |  | COc1ccc2c(c1)C=C([N+](=O)[O-])C(C1OC(C)(C)OC1C1COC(C)(C)O1)O2 (centres unmarked) [Compound 618261]
1.03 | −18.7 |  |  |  | O=C1C(Br)=C(Br)C(=O)c2ccccc21 [Compound 618332]
 |  | −27.2 | 0.86 |  | O=C([O-])c1cc(I)cc(I)c1O.O=C([O-])c1cc(I)cc(I)c1O.[Mn+2] [Compound 619907]

Int.* (Ratio) (Interference) [1] | Inh. (%) (Inhibition) (MBHA with DNA substrate) | Inh. (%) (Inhibition) (MBHA with a DNA substrate) | Int.* (Ratio) (Interference) [2] | Inh. (%) (Inhibition) (MBHA with DNA substrate, 20 µM) | Structure (SMILES)
 |  | −3.3 | 0.96 |  | COC(=O)C[S+]([O-])c1ccccc1 (centres unmarked) [Compound 620050]
0.93 | 17.1 |  |  |  | N#CCCN(CCC#N)c1ccc(C=Nc2ccc(F)cc2)cc1 [Compound 620277]
 |  | −45.1 | 1.17 |  | CCOC(=O)c1ccc(N=Cc2ccc(N(CCC#N)CCC#N)cc2)cc1 [Compound 620279]
 |  | −30.3 | 1.01 |  | Cc1c(N=Cc2ccc(N(CCC#N)CCC#N)cc2)c(=O)n(-c2ccccc2)n1C [Compound 620280]
0.98 | −2.8 |  |  |  | CC1=NN(C(=O)c2ccncc2)C(=O)C1N=Nc1ccc(F)cc1 (centres unmarked) [Compound 621094]
1.16 | −10.4 |  |  |  | Cc1cc2c(cc1C)[n+](=O)c(C(=O)/C=C/c1ccccc1[N+](=O)[O-])c(C)n2[O-] [Compound 621486]
1.09 | 4.9 |  |  |  | COC1=CC(=O)c2c(ccc3ncnc(N)c23)C1=O [Compound 622190]
0.93 | −14.9 |  |  |  | COc1ccc(-n2/c(=N/C(=S)N(C)C)ss/c2=N\C(=S)N(C)C)cc1 [Compound 622586]
 |  | −21.0 | 0.94 |  | CN(C)C(=S)/N=c1\ss/c(=N\C(=S)N(C)C)n1-c1ccc2c(c1)OCO2 [Compound 622589]
 |  | −26.2 | 1.09 |  | O=[N+]([O-])c1cc(C(F)(F)F)cc([N+](=O)[O-])c1CCl [Compound 622627]
1.10 | −13.4 |  |  |  | NC(=O)c1c([N+](=O)[O-])cc(C(F)(F)F)cc1[N+](=O)[O-] [Compound 622640]
0.92 | 27.4 |  |  |  | Cn1ncc2cc3c(Nc4ccc(Cl)cc4)cccc3nc21 [Compound 622732]
0.92 | −10.9 |  |  |  | Cc1cc(Cl)ccc1N1C(=O)C(=O)C(c2nc3ccccc3o2)C(=O)C1=O [Compound 623051]
0.94 | −8.7 |  |  |  | COc1ccc2nc(NC(=O)C(=O)CC(=O)c3ccc(Cl)cc3)sc2c1 [Compound 623059]
 |  | −4.2 | 0.87 |  | O=C(Nc1ccccc1-c1nn(C(=S)Nc2ccccc2)c(=S)n(C(=S)Nc2ccccc2)c1=O)C(F)(F)F [Compound 623093]

More lines, now with the values behind:

Structure (SMILES) | Int.* (Ratio) (Interference) [1] | Inh. (%) (Inhibition) (MBHA with DNA substrate) | Inh. (%) (Inhibition) (MBHA with a DNA substrate) | Int.* (Ratio) (Interference) [2] | Inh. (%) (Inhibition) (MBHA with DNA substrate, 20 µM)
CSC1SC[C@H]2C(=O)N(C)[C@@H](C(C)C)C(=O)OC[C@@H](NC(=O)c3cnc4ccccc4n3)C(=O)N[C@@H](C)C(=O)N(C)[C@@H]1C(=O)N(C)[C@@H](C(C)C)C(=O)OC[C@@H](NC(=O)c1cnc3ccccc3n1)C(=O)N[C@@H](C)C(=O)N2C (some centres unmarked) [Compound 526417] | 0.86 | 55.2 |  |  | 
N[C@@H](CN(O)N=O)C(=O)O [Compound 529469] | 0.89 | 18.9 |  |  | 
CCCCCn1cc2c3c(cccc31)C1C=C(C)CN(C)[C@@H]1C2.Cc1ccc(C(=O)OC(C(=O)O)C(OC(=O)c2ccc(C)cc2)C(=O)O)cc1 (centres unmarked) [Compound 600681] | 0.95 | −19.1 |  |  | 
C[Si](C)(CN)CN.[Cl][Pt][Cl] [Compound 603577] | 0.93 | 13.5 |  |  | 
CCCCCCCCCCCCCCCCOP(=O)([O-])OCC[N+](C)(C)C [Compound 605583] | 0.89 | −10.9 |  |  | 
CC(C)(C)OC(=O)NC(Cc1ccccc1)C(=O)OCN1C(=O)C2C3C=CC(C2C1=O)C1C2C(=O)N(COC(=O)C(Cc4ccccc4)NC(=O)OC(C)(C)C)C(=O)C2C31 (centres unmarked) [Compound 607316] | 0.97 | −1.8 |  |  | 
COc1cc(C(O)CCBr)c(OC)cc1C (centres unmarked) [Compound 611750] | 0.94 | −8.1 |  |  | 
C/C1=C\[C@H](C)C[C@H](C)OC(=O)CC(c2ccc(O)cc2)NC(=O)[C@@H](Cc2c(Br)[nH]c3ccccc23)N(C)C(=O)[C@H](C)NC(=O)[C@@H](C)C1 (some centres unmarked) [Compound 613009] |  |  | −21.7 | 0.94 | 
CC1(C)C(O)OC(O)C1(C)C (centres unmarked) [Compound 614928] | 0.99 | 19.1 |  |  | 
OC(CBr)C(O)C(O)C(O)CBr (centres unmarked) [Compound 616232] | 1.02 | −0.6 |  |  | 
CC(C)(C)[Si](C)(C)OCC1CCC(n2cnc3c(N)ncnc32)O1 (centres unmarked) [Compound 616355] | 1.01 | −12.6 |  |  | 
CCCCCC/C=C\CCCCCCCCCc1cccc(OC)c1O [Compound 617540] |  |  | −28.4 | 1.11 | 
C/C=C(\CCC1NCCc2c1[nH]c1ccccc21)[Si](C)(C)C (centres unmarked) [Compound 619165] | 0.89 | 13.6 |  |  | 
[Cl-].[Cl-].[Cl-].[Rh+3].c1ccc(-c2ccnc3c2ccc2c(-c4ccccc4)ccnc23)cc1.c1ccc(-c2ccnc3c2ccc2c(-c4ccccc4)ccnc23)cc1.c1ccc(-c2ccnc3c2ccc2c(-c4ccccc4)ccnc23)cc1 [Compound 619179] | 0.44 | 23.8 |  |  | 
C=C1C(=O)C23CC[C@@H]4C(C)(C(=O)OC)CCCC4(C)[C@@H]2CCC1(O)C3 (some centres unmarked) [Compound 620358] | 0.91 | −10.5 |  |  | 
C[N+](C)(C)CC1CCCC1=O.[I-] (centres unmarked) [Compound 621889] | 1.08 | 12.2 |  |  | 
[Mo] [Compound 622116] | 0.97 |  |  |  | 3.5
[Mo] [Compound 622124] | 1.11 |  |  |  | 54.2
Br.CN(C)c1nc(=NCc2ccco2)ss1 [Compound 622608] | 1.01 | −2.1 |  |  | 
CCOC(=O)CCc1c(C)c2c(O)cc(O)cc2oc1=O [Compound 622616] |  |  | −6.5 | 0.95 | 
CCOC(=O)/N=C(\N)SCc1ccccc1.Cl [Compound 622684] | 1.04 | −1.3 |  |  | 
